From patent US20170106011A1, “METHODS OF TREATING TRAUMATIC BRAIN INJURY AND SEQUELAE” (Cantex Pharmaceuticals, Inc., priority 2015, published 2017)
Entries after “also recorded” stand apart in the source; their conditions may differ.

Columns and labels:
[1] = comparator, Rao et al. 2010; cited from earlier work
[2] = USP anticoagulant assay; type: biochemical
[3] = tested on: middle cerebral artery occlusion animal model; experiment: secondary brain injury after middle cerebral artery occlusion in an animal model; type: in vivo
[4] = tested on: patients with moderate TBI; experiment: clinical trial of ODSH infusion in moderate TBI; type: in vivo; details: ODSH infusion added to best supportive care
Experimental: FIG. 4 outlines the phase II clinical trial of ODSH for treating TBI.
A clinical trial is conducted.
Enrollment criteria are (i) moderate TBI: Glasgow Coma Score (GCS) of 9-12, or if patient is intubated, GCS 7-9; (ii) cerebral contusions on CT scan. Patients are randomized into 2 groups. Both groups receive best supportive care. This is an active treatment control. One group additionally receives infusion of ODSH.

For unfractionated heparin, the “activity in the USP anticoagulant assay” value [1] is given as 165-190 U/mg.

In the case of 2-O, 3-O-desulfated heparin [ODSH], the “anticoagulant activity in the USP anticoagulant assay” value [2] is reported as “less than 9 U/mg”, the “anticoagulant activity in the USP anticoagulant assay (e.g. value)” value [2] is reported as 7±0.3 U and the secondary brain injury [3] is reported as “reduction of secondary brain injury; also recorded: reduced secondary brain injury”. For the same substance, the inflammatory biomarkers [4] was “reduces”, the “Glasgow Outcome Scale scores” value ([4]; at 6 months) was “improves” and the “Montreal Cognitive Assessment (MoCA) score” value ([4]; six months post-injury) was “improves”.
